Reference: US20250177408A1, “INHIBITOR OF INTERACTION BETWEEN YAP/TAZ AND TEAD, PREPARATION THEREOF, PHARMACEUTICAL COMPOSITION THEREOF AND USE THEREOF” (ETERN BIOPHARMA (SHANGHAI) CO., LTD., priority 2022, published 2025)

What was measured:
[1] = biological target: YAP-TEAD protein interaction (His-TEAD1 (209-426) protein, Bio-YAP peptide (60-100)) (Homo sapiens, UniProt P28347); experiment: YAP-TEAD protein interaction HTRF experiment; format: binding; details: His-TEAD1 (209-426) 10 nM, Bio-YAP peptide 50 nM, read-out: Activity of each compound in blocking YAP-TEAD protein interaction (grades of IC50 values)
Method in brief: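 His-TEAD1 (209-426) at 10 nM final was preincubated 20 min at RT with compounds (10-point 3-fold dilutions, duplicates, 1% DMSO), then Bio-YAP peptide, 10 min. Anti-His-Eu cryptate/streptavidin-XL665 added for 1 h at RT; HTRF read at ex 320 nm, Em665/Em620 ratio ×10000, IC50 from % inhibition.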

YAP/TEAD reporter gene = YAP/TEAD reporter gene inhibition experiment in SF268-YAP-Luc cells; format: cell-based; details: SF268-YAP-Luc cells, 24 hours, Renila luciferase signal corrected for cell viability; read-out: Activity of each compound in inhibiting the expression of YAP/TEAD reporter gene (grades of IC50 values)
Description: In this example, the inhibition of the compound on the target was detected by the signal of the reporter gene in the stable cell line SF268-YAP-Luc containing the YAP/TEAD reporter gene.
A sequence containing 6 tandem YAP/TEAD binding sites and a basal transcription promoter was constructed on the vector pGL4.76 of Promega Company. The constructed reporter gene vector was transfected into SF268 cells (NCI DCTD tumor/cell line repository) and screened with 0.5 μg/mL hygromycin to obtain SF268-YAP-Luc stable strain.
SF268-YAP-Luc cells were seeded into a 96-well plate at a density of 3000 cells per well with a volume of 100 μL per well (cell culture medium composition: RPMI1640 (Gibco-A10491-01)+10% FBS (Gibco-10099-141C)+1% penicillin-streptomycin (5,000 U/mL, Gibco-15070-063)), and the cells were incubated overnight in a 37° C., 5% carbon dioxide incubator.
On the next day, the compounds to be tested were 3-fold diluted, and a total of 8 concentration gradients were set up; a certain volume of DMSO or the compounds to be tested was added to each well, respectively, and 2 replicates were set up for each concentration, and the final concentration of DMSO was controlled to be no higher than 0.5%. The cells were incubated for 24 hours in a 37° C., 5% carbon dioxide incubator. Two identical parallel plates were set up for cell seeding and compound treatment.
Renila-Glo luciferase assay system kit (Promega, E2720) was used to detect the reporter gene signals of the control group and treatment group. 70 μL of Renila-Glo was added to each well, mixed well, and incubated at room temperature for 10 minutes. The signal was read using EnVision® Multilabel Plate Reader (Perkin Elmer).
Cell viability was detected in the control group and treatment group using CellTiter-Glo Luminescent Cell Viability Assay kit (Promega, G7570). 50 μL of CellTiter-Glo was added to each well, mixed well, and incubated at room temperature for 10 minutes. The signal was read using En Vision® Multilabel Plate Reader (Perkin Elmer).
The signal of Renila luciferase after correcting for cell viability was analyzed, and the inhibition rate of the compound on the reporter gene was calculated. The inhibition percentage (%) is calculated by the following formula: […]
Using Graphpad Prism software, the IC50 values for the compounds' inhibitory activity against Renila luciferase signaling were calculated.

MSTO-211H cells = experiment: Cell proliferation inhibition experiment (CellTiter-Glo); format: cell-based; details: Homo sapiens, 96 hours, read-out: Inhibitory activity of each compound on the proliferation of MSTO-211H cells (grades of IC50 values)
Method in brief: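 MSTO-211H cells (1500/well, RPMI1640 + 10% FBS) were plated overnight at 37° C, 5% CO2, then exposed in duplicate to 9 three-fold compound dilutions (DMSO ≤0.5% final) for 96 hours. Viability was read as CellTiter-Glo luminescence after 10 min at room temperature. IC50 was derived from inhibition of the CTG signal.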

Sequence of YAP-TEAD protein interaction (His-TEAD1 (209-426) protein, Bio-YAP peptide (60-100)) (P28347 209-426): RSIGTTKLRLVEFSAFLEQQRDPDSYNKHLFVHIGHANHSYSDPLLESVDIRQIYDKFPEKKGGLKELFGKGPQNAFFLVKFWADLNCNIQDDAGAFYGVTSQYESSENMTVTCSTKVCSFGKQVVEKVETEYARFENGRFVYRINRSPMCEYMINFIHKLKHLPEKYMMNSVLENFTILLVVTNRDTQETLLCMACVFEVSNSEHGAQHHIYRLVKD

| Structure (SMILES) | IC50 [1] | IC50 (YAP/TEAD reporter gene) | IC50 (MSTO-211H cells) |
| --- | --- | --- | --- |
| CN1C(=O)COc2c1cc(C(N)=O)c(-c1c(Cl)c(F)cc3c1C[C@](c1ccccc1)([C@@H]1CCCN1)O3)c2F (atropisomer, axis not shown) [Compound I-25, (S)-7-((S)-5-Chloro-6-fluoro-2-phenyl-2-((S)-pyrrolidin-2-yl)-2,3-dihydrobenzofuran-4-yl)-8-fluoro-4-methyl-3-oxo-3,4-dihydro-2H-benzo[b][1,4]oxazine-6-carboxamide] | < 50 nM | 50 to 500 nM | 200 to 500 nM |
| NC(=O)c1cc2c(c(F)c1-c1c(Cl)c(F)cc3c1C[C@](c1ccccc1)([C@@H]1CCCN1)O3)OCCO2 (atropisomer, axis not shown) [Compound 1, 7-((2S,4S)-5-Chloro-6-fluoro-2-phenyl-2-((S)-pyrrolidin-2-yl)-2,3-dihydrobenzofuran-4-yl)-8-fluoro-2,3-dihydrobenzo[b][1,4]dioxine-6-carboxamide] | < 50 nM | < 50 nM | < 200 nM |
| NC(=O)c1cc2c(c(F)c1-c1c(Cl)c(F)cc3c1C[C@](c1ccccc1)([C@@H]1CCCN1)O3)OCC(=O)N2 (atropisomer, axis not shown) [Compound I-23, (S)-7-((S)-5-Chloro-6-fluoro-2-phenyl-2-((S)-pyrrolidin-2-yl)-2,3-dihydrobenzofuran-4-yl)-8-fluoro-3-oxo-3,4-dihydro-2H-benzo[b][1,4]oxazine-6-carboxamide] | < 50 nM | 50 to 500 nM | < 200 nM |
| Cn1cc2c(n1)Oc1c(cc(C(N)=O)c(-c3c(Cl)c(F)cc4c3C[C@](c3ccccc3)([C@@H]3CCCN3)O4)c1F)O2 (atropisomer, axis not shown) [Compound 8, (S)-7-((S)-5-Chloro-6-fluoro-2-phenyl-2-((S)-pyrrolidin-2-yl)-2,3-dihydrobenzofuran-4-yl)-8-fluoro-2-methyl-2H-benzo[5,6][1,4]dioxoino[2,3-c]pyrazole-6-carboxamide] | < 50 nM | < 50 nM | < 200 nM |
| Cn1cc2c(n1)COc1c-2cc(C(N)=O)c(-c2c(Cl)c(F)cc3c2C[C@](c2ccccc2)([C@@H]2CCCN2)O3)c1F (atropisomer, axis not shown) [Compound 3, (S)-7-((S)-5-Chloro-6-fluoro-2-phenyl-2-((S)-pyrrolidin-2-yl)-2,3-dihydrobenzofuran-4-yl)-6-fluoro-2-methyl-2,4-dihydrochromeno[3,4-c]pyrazole-8-carboxamide] | < 50 nM | < 50 nM | < 200 nM |
| CNC[C@@]1(c2ccccc2)Cc2c(cc(F)c(Cl)c2-c2c(C(N)=O)cn3ccnc3c2F)O1 (atropisomer, axis not shown) [Compound I-1] | < 50 nM | < 50 nM | < 200 nM |
| CC(=O)N1CCOc2c1cc(C(N)=O)c(-c1c(Cl)c(F)cc3c1C[C@](c1ccccc1)([C@@H]1CCCN1)O3)c2F (atropisomer, axis not shown) [Compound I-27, (S)-4-Acetyl-7-((S)-5-chloro-6-fluoro-2-phenyl-2-((S)-pyrrolidin-2-yl)-2,3-dihydrobenzofuran-4-yl)-8-fluoro-3,4-dihydro-2H-benzo[b][1,4]oxazine-6-carboxamide] | < 50 nM | < 50 nM | 200 to 500 nM |
| CN1CCOc2c1cc(C(N)=O)c(-c1c(Cl)c(F)cc3c1C[C@](c1ccccc1)([C@@H]1CCCN1)O3)c2F (atropisomer, axis not shown) [Compound I-24, (S)-7-((S)-5-Chloro-6-fluoro-2-phenyl-2-((S)-pyrrolidin-2-yl)-2,3-dihydrobenzofuran-4-yl)-8-fluoro-4-methyl-3,4-dihydro-2H-benzo[b][1,4]oxazine-6-carboxamide] | < 50 nM | < 50 nM | < 200 nM |
